{"source": "patent US20220193209A1", "about": "“COMPOSITIONS AND METHODS FOR REACTIVATING LATENT IMMUNODEFICIENCY VIRUS AND/OR TREATING IMMUNODEFICIENCY VIRUS INFECTION” (The J. David Gladstone institutes, a testamentary trust …, priority 2019, published 2022)", "key": {"[1]": {"system": "ATF4", "assay": "Western blot of ATF4 protein in CD4+ T cells", "assay_type": "cell-based, human", "details": "multiple donors", "experimental": "Cells were lysed in radioimmunoprecipitation assay buffer (50 mM Tris-HCl, pH 8, 150 mM NaCl, 1% NP-40, 0.5% sodium deoxycholate, and 0.1% SDS, supplemented with protease inhibitor cocktail; Sigma-Aldrich) for 30 min at 4° C. Samples were resuspended in Laemmli buffer for SDS-PAGE. For chemiluminescent detection, enhanced luminol-based chemiluminescent substrate (ECL) and ECL Hyperfilm (Amersham) were used.\nThe RNA-Seq results were validated by measuring read counts of the selected genes representative of different pathways (FIG. 8, Panel D) as well as by Real-Time Quantitative PCR (RT-qPCR) (FIG. 7, Panel C). […] Upstream regulator analysis identified TRIB3 and ATF4 as the top regulators of AS1842856-induced gene changes (FIG. 7, Panel D).\nFIG. 7, Panels A-E, depict marked upregulation of the regulator ATF4 in response to FOXO1 inhibition in primary CD4^+ T cells. FIG. 7, Panel A depicts a volcano plot from the RNA-Seq data comparing CD4^+ T cells treated with 1000 nM AS1842856 versus DMSO control for 48 h. […] FIG. 7, Panel D, depicts analysis of the five top upstream regulators and table with their activation z-scores according to the RNA-Seq data. FIG. 7, Panel E depicts a representative blot of protein expression of dysregulated genes of interest (left) and densitometry analysis (right) was performed from three individual donors."}, "[2]": {"biological_target": "T1, FOXO1 (Homo sapiens, UniProt Q12778)", "T1 construct": "performed against the FOXO isoforms expressed in K562 cells; endogenous in cells; host or cells: K562", "T1 sequence (Q12778 whole entry, canonical isoform)": "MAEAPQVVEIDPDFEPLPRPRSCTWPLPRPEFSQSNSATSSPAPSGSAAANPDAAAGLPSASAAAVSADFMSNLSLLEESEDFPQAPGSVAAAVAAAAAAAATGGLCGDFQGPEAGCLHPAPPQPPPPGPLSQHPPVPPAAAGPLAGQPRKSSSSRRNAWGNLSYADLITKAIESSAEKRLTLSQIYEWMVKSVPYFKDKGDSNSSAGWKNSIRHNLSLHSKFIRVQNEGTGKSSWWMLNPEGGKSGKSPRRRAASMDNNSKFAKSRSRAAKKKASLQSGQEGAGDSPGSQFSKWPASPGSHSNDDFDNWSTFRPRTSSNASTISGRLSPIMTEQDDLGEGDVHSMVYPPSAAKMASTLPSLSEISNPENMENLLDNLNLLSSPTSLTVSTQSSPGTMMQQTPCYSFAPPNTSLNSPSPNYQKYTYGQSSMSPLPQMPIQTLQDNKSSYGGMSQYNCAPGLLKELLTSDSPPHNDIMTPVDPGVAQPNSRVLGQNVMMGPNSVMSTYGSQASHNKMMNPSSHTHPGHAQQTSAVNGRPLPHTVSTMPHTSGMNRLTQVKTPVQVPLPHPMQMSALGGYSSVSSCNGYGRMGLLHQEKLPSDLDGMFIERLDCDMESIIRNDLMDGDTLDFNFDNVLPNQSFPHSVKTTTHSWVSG", "assay": "Cellular Thermal Shift Assay (CETSA) in K562 cells, FOXO1", "assay_type": "binding", "details": "1 μM", "experimental": "K562 cells (ATCC) were maintained in appropriate volume of RPMI medium supplemented with 10% fetal bovine serum (Serum Plus—II, Sigma MO, USA), 100 units/mL penicillin and 100 […] (Corning, VA, USA). Short-term passages (<15) were used for all experiments. For CETSA, K562 cell were freshly seeded the day before the experiment. The day of experiment, equal numbers of cells were counted by Moxi Mini automated cell counter (Orflo) and 0.6×10^6 cells per data point were seeded in T-25 cell culture flasks (VWR, PA, USA) in appropriate volume of culture medium. Cells were exposed to […] AS1842856 or equal volume DMSO for 3 hours in an incubator with 5% CO2 and 37° C. […] The supernatants were transferred to new microcentrifuge tubes and analyzed by SDS-PAGE followed by immunoblotting analysis. […] Immunoblotting results were subjected to densitometric analysis (Image J) and melting temperatures of FOXO1, FOXO3 and FOXO4 were determined by Prism 7 (GraphPad) using nonlinear least-squares regression fit to Y=100/(1+10^(Log IC50−X)*H), where H=Hill slope (variable). The viability of the cells was assessed in triplicate by trypan blue exclusion. […]\nBriefly, K562 cells were treated with increasing concentrations of the FOXO1 inhibitor AS1842856 just after HIVGKO infection. After 3-4 days, the percentage of latent cells and productive cells were quantified by FACS. […]"}, "[3]": {"biological_target": "T2, FOXO4 (Homo sapiens, UniProt P98177)", "T2 construct": "performed against the FOXO isoforms expressed in K562 cells; endogenous in cells; host or cells: K562", "T2 sequence (P98177 whole entry, canonical isoform)": "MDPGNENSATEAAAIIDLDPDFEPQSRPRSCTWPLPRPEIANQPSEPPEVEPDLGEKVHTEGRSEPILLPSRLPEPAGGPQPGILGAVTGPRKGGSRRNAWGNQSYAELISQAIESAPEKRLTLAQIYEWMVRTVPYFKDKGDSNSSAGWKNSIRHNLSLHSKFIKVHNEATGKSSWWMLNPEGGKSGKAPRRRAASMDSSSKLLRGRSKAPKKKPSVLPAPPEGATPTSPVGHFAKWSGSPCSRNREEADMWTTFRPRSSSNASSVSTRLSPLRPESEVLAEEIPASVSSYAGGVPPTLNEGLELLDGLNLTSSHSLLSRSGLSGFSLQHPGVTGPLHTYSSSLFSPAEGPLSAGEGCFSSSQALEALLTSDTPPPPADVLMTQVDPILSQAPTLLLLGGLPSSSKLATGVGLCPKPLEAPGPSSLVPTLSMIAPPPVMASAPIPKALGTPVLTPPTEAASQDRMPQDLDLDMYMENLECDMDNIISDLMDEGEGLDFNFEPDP", "assay": "Cellular Thermal Shift Assay (CETSA) in K562 cells, FOXO4", "assay_type": "binding", "details": "1 μM", "experimental": "K562 cells (ATCC) were maintained in appropriate volume of RPMI medium supplemented with 10% fetal bovine serum (Serum Plus—II, Sigma MO, USA), 100 units/mL penicillin and 100 […] (Corning, VA, USA). Short-term passages (<15) were used for all experiments. For CETSA, K562 cell were freshly seeded the day before the experiment. The day of experiment, equal numbers of cells were counted by Moxi Mini automated cell counter (Orflo) and 0.6×10^6 cells per data point were seeded in T-25 cell culture flasks (VWR, PA, USA) in appropriate volume of culture medium. […] The supernatants were transferred to new microcentrifuge tubes and analyzed by SDS-PAGE followed by immunoblotting analysis. […] Immunoblotting results were subjected to densitometric analysis (Image J) and melting temperatures of FOXO1, FOXO3 and FOXO4 were determined by Prism 7 (GraphPad) using nonlinear least-squares regression fit to Y=100/(1+10^(Log IC50−X)*H), where H=Hill slope (variable). The viability of the cells was assessed in triplicate by trypan blue exclusion.\nWhether the effect of AS1842856 was mediated by its interaction with FOXO1 was confirmed. […] AS1842856-FOXO binding was considered ‘positive’ if there was a significant change in the thermal profile of the protein between the presence and the absence of the drug assessed by western blot (FIG. 2, Panel A). […]"}}}
{"molecule": "CCn1cc(C(=O)O)c(=O)c2c(N)c(F)c(NC3CCCCC3)cc21", "note": "[AS1842856, 5-amino-7-(cyclohexylamino)-1-ethyl-6-fluoro-4-oxo-1,4-dihydro-quinoline-3-carboxylic acid]", "values": [{"measurement": "ATF4 protein levels", "setting": "[1]", "value": "increased expression"}, {"measurement": "shift in FOXO1 melting curve", "setting": "[2]", "value": 7.23, "unit": "°C"}, {"measurement": "change in FOXO4 melting curve", "setting": "[3]", "value": "no changes"}]}
